Tests used:
eIF4E = target: T1, eIF4E (Mus musculus, UniProt P63073); test: FA competition (probe-displacement) assay for eIF4E; format: binding, Murine; conditions: for EC50: HEPES pH 7.2
T1 construct: Murine eIF4E (residues 28–217) was expressed in E. coli; made in house; host or cells: E. coli
Method: Inclusion bodies containing eIF4E were solubilized in 50 mM HEPES/KOH (pH 7.2) buffer containing 10% glycerol, 6 M guanidine hydrochloride and 2 mM DTT. Protein was then refolded during a two-step dialysis against buffer with decreasing concentration of guanidine hydrochloride in the presence of 100 mM KCl. Subsequently eIF4E was loaded on ion exchange HiTrap SP HP column (GE Healthcare), eluted with linear gradient of 0.1–1 M KCl and finally desalted and polished during a gel filtration purification step on HiLoad 16/600 Superdex 75 pg (GE Healthcare) using 50 mM HEPES pH 7.2, 100 mM KCl, 0.5 mM EDTA, 2 mM DTT buffer. eIF4E was aliquoted and stored in the presence of 10% glycerol at −80 °C. Before each experiment the protein was centrifuged on Ultrafree-MC Centrifugal PVDF filter with […] pore size (Millipore), at 4 °C and 3000×g for 2 min to remove any possible aggregates.
(§1) Experiments were carried out at 25 °C in 96-well non-binding microplates with sample volume of 200 µl per well. Two different buffers were used depending on protein used in the assay:
eIF4E assay buffer—50 mM HEPES (pH 7.2), 100 mM KCl, 0.5 mM EDTA, 1 mM DTT.
(§2) For competitive binding assay, a mixture containing the probe and the protein was incubated with the tested ligand.
(§3) In competitive measurements, a constant concentration of the protein and fluorescent probe and increasing concentration of the test ligand were used. At least 12 point dilutions of the tested compound were used. The experiments were carried out in 96-well plates. Each sample contained a mixture consisting of the probe, tested ligand and buffer (same as for the direct binding assay). The samples were incubated for 10 min at 25 °C with simultaneous shaking, then the protein was added to each well, incubated for additional 3 min, followed by the measurement of fluorescence anisotropy. FA signals were recorded for 20 min with 2 min intervals.

DcpS [1] = target: T2, DcpS (Homo sapiens, UniProt Q96C86); test: FA screening of in-house library, 2i:DcpS system; format: binding; conditions: 1 nM 2i, 25 nM DcpS, 1.5 µM inhibitor
T2 construct: His tag; made in house; host or cells: E. coli BL21(DE3) RIL
T2 sequence (Q96C86 1-337): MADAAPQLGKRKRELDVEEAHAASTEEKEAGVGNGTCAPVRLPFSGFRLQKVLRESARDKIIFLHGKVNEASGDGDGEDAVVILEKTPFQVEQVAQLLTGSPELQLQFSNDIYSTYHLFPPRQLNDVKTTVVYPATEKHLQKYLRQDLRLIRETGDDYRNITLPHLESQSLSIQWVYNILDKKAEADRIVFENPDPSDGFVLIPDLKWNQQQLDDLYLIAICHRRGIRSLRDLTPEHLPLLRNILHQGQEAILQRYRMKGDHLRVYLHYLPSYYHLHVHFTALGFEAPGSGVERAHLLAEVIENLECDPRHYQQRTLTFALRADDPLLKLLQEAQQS
Method: The Z’ factor was determined under conditions optimized for the competition assay. The Z’ value exceeded 0.8 for incubation times up to 1 h, making the assay suitable for screening experiments (Table 5). A screening experiment was then performed using the same compound library as that used for eIF4E screening. The results highlighted the impact of the triphosphate bridge modification on the affinity for the protein. […] The FA method also enabled the identification of unstable compounds, e.g., hydrozylable ligands for which determination of affinity is problematic (as observed by FA signal changes during the experiment; Fig. 7).
To evaluate the quality of the assay, the Z’ factor was determined for several protein-probe combinations. The assay was performed on 96-well microplates, where half of the samples were negative controls and the other half were positive controls.
For the screening experiments a small in-house library containing 21 ligands was used. Experiments were conducted in the same manner as Z’ factor determination, with exception that the ligand concentration was modified (eIF4E screening conditions: 1 nM 1e, 100 nM eIF4E, 750 nM ligand, DcpS screening conditions: 1 nM 2i, 25 nM DcpS, 1.5 µM ligand). For eIF4E screening experiment, the 1e:eIF4E system was used, for DcpS screening 2i:DcpS system was used.

DcpS [2] = test system: DcpS; set-up: method as in PMID 27031609; conditions: DcpS inhibition, FR assay; cited from earlier work
DcpS [3] = target: T2, DcpS; test: FA competition assay for DcpS; format: binding
Method: Expression of recombinant His-tagged human DcpS was performed in BL21(DE3) RIL strain and induced overnight at 18 °C using 0.5 mM IPTG as described previously. Cells were harvested, resuspended in buffer (50 mM Tris pH 7.6, 500 mM NaCl, 20 mM imidazole) with lysozyme (0.1 mg/ml) and protease inhibitors (1 mM PMSF, 1 µM pepstatin A, 0.3 µM aprotinin) and then lysed using sonication. Lysate was clarified by centrifugation at 35 000 × g for 40 min at 4 °C. […] The enzyme hDcpS was purified to homogeneity on HiLoad 16/600 Superdex 200 pg (GE Healthcare) gel filtration column using 50 mM Tris·HCl pH 7.6, 200 mM NaCl, 2 mM DTT buffer. Protein was aliquoted and stored in the presence of 10% glycerol at -80 °C.
as §1
DcpS assay buffer—50 mM Tris–HCl (pH 7.6), 200 mM KCl, 0.5 mM EDTA, 1 mM DTT.
as §2, §3

[4] = Probe 1a: 10 nM probe 1a and 100 nM eIF4E
[5] = Probe 1b: 1 nM probe 1b and 15 nM eIF4E
[6] = Probe 1e: footnote c, 1 nM probe 1c and 100 nM eIF4E
[7] = 1f:DcpS system, 1f and 100 nM DcpS
[8] = 2g:DcpS system, 2 nM 2g and 25 nM DcpS
[9] = 2i:DcpS system, 1 nM 2i and 25 nM DcpS
[10] = 2h:DcpS system, 2 nM 2h and 25 nM DcpS

T1 sequence (P63073 28-217): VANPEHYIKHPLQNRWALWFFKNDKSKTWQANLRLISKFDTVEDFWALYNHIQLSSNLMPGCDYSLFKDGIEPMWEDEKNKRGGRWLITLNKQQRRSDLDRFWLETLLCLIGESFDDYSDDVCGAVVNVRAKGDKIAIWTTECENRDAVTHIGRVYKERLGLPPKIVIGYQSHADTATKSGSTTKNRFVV

Row | Compound | Hill slope (eIF4E; [4]) | EC50 (eIF4E; [4]) | Hill slope (eIF4E; [5]) | EC50 (eIF4E; [5]) | Hill slope (eIF4E; [6]) | EC50 (eIF4E; [6]) | inhibitory potency in DcpS screening (DcpS [1]) | also measured
1 | m^7GSppSpSG D1 |  |  |  |  |  |  | the most potent inhibitors | 
2 | m^7GSppSpSG D2 |  |  |  |  |  |  | the most potent inhibitors | 
3 | C[n+]1cn([C@@H]2O[C@H](COP(=O)([S-])OP(=O)(O)OP(=O)(O)OC[C@H]3O[C@@H](n4cnc5c(=O)[nH]c(N)nc54)[C@H](O)[C@@H]3O)[C@@H](O)[C@H]2O)c2nc(N)nc(O)c21 (some centres unmarked) [m^7GpSppG D1] |  |  |  |  |  |  |  | stability towards DcpS (FA signal changes during the screening experiment) (DcpS [1]): slowly hydrolyzed DcpS substrates
4 | C[n+]1cn([C@@H]2O[C@H](COP(=O)(O)CP(=O)(O)OP(=O)(O)OC[C@H]3O[C@@H](n4cnc5c(=O)[nH]c(N)nc54)[C@H](O)[C@@H]3O)[C@@H](O)[C@H]2O)c2nc(N)[nH]c(=O)c21 [m^7GpCH2ppG] |  |  |  |  |  |  | strong DcpS inhibitors | 
5 | C[n+]1cn([C@@H]2O[C@H](COP(=O)([O-])NP(=O)(O)OP(=O)(O)OC[C@H]3O[C@@H](n4cnc5c(=O)[nH]c(N)nc54)[C@H](O)[C@@H]3O)[C@@H](O)[C@H]2O)c2nc(N)[nH]c(=O)c21.N.N [m^7GpNHppG] |  |  |  |  |  |  | strong DcpS inhibitors | IC50 (DcpS [2]): 3200 ± 900 nM; EC50 (DcpS [3]; [7]): 27.8 ± 2.7 nM; Hill slope (DcpS [3]; [7]): 2.26 ± 0.16; EC50 (DcpS [3]; [8]): 11.6 ± 0.4 nM; Hill slope (DcpS [3]; [8]): 1.95 ± 0.07; EC50 (DcpS [3]; [9]): 17.9 ± 1.3 nM; Hill slope (DcpS [3]; [9]): 1.66 ± 0.10; EC50 (DcpS [3]; [10]): 18.1 ± 5 nM; Hill slope (DcpS [3]; [10]): 1.23 ± 0.44

Continued, in another order:

Row | Hill slope (eIF4E; [4]) | EC50 (eIF4E; [4]) | Hill slope (eIF4E; [5]) | EC50 (eIF4E; [5]) | Hill slope (eIF4E; [6]) | EC50 (eIF4E; [6]) | inhibitory potency in DcpS screening (DcpS [1]) | Compound | also measured
6 | 1.19 ± 0.06 | 382 ± 21 nM | 1.15 ± 0.06 | 511 ± 109 nM | 1.04 ± 0.17 | 477 ± 89 nM |  | C[n+]1cn([C@@H]2O[C@H](COP(=O)([O-])OP(O)(=S)OP(=O)(O)OC[C@H]3O[C@@H](n4cnc5c(=O)[nH]c(N)nc54)[C@H](O)[C@@H]3O)[C@@H](O)[C@H]2O)c2nc(N)[nH]c(=O)c21 (single isomer, unassigned) [m^7GppSpG D2] | 
7 | 1.37 ± 0.02 | 184 ± 13 nM | 1.16 ± 0.18 | 210 ± 32 nM | 1.10 ± 0.06 | 226 ± 43 nM |  | C[n+]1cn([C@@H]2O[C@H](COP(=O)([O-])OP(O)(=S)OP(=O)(O)OC[C@H]3O[C@@H](n4cnc5c(=O)[nH]c(N)nc54)[C@H](O)[C@@H]3O)[C@@H](O)[C@H]2O)c2nc(N)[nH]c(=O)c21 (single isomer, unassigned) [m^7GppSpG D1] | 
8 | 1.12 ± 0.03 | 413 ± 13 nM | 1.12 ± 0.06 | 599 ± 64 nM | 1.08 ± 0.11 | 551 ± 75 nM |  | Cn1c[n+]([C@@H]2O[C@H](COP(=O)(O)OP(=O)([O-])OP(=O)(O)OC[C@H]3O[C@@H](n4cnc5c(=O)[nH]c(N)nc54)[C@H](O)[C@@H]3O)[C@@H](O)[C@H]2O)c2nc(N)[nH]c(=O)c21 [m^7GpppG] | 
9 | 1.94 ± 0.26 | 74 ± 10 nM | 1.37 ± 0.08 | 34.9 ± 7 nM | 1.40 ± 0.06 | 64.3 ± 3.4 nM |  | CO[C@@H]1[C@H](O)[C@@H](COP([O-])(=S)OP(=O)(O)OP(=O)(O)OP(=O)(O)OC[C@H]2O[C@@H](n3cnc4c(=O)[nH]c(N)nc43)[C@H](O)[C@@H]2O)O[C@H]1n1c[n+](C)c2c(=O)[nH]c(N)nc21 (single isomer, unassigned) [m^7′-OGpSpppG D2, m^7,2′-OGpSpppG D2] | 

Source: PMC8032668, “Evaluation of carboxyfluorescein-labeled 7-methylguanine nucleotides as probes for studying cap-binding proteins by fluorescence anisotropy” (Scientific Reports, 2021)
